Results on two molecules are retold here after patent publication US7163953B2, “Benzylether derivatives” (Hoffmann-La Roche Inc., priority 2004, dated 2007).

The target in the assay is T1, HER-2 (Homo sapiens, UniProt P04626).
T1 construct: endogenous in cells; host or cells: Calu-3 (human non-small-cell lung cancer, ATCC HTB-55)
As to the kind of experiment: Inhibition of HER-2 phosphorylation in Calu-3 tumor cell line. It is filed as cell-based. The following applies: compound concentration 1 μM; Calu-3 cells, 16 h incubation; pY 1248 in HER-2; relative to DMSO control; read-out: Percent inhibition of HER-2-phosphorylation. As to the method:
Inhibition of HER-2 Phosphorylation in Calu-3 Tumor Cell Line
2×10^5 Calu-3 cells (Non-Small-Cell Lung Cancer cells, ATTC HTB-55) per well were plated in a 12-well plate. After 4 days cells were starved for 16 h in Dulbecco's Modified Eagle Medium (DMEM)/0.5% Fetal Calf Serum (FCS)/1% Glutamine. During this 16 h period cells were incubated with a solution of the test compound in dimethylsulfoxide (DMSO), so that the final concentration of the compound is 1 μM and the final volume of DMSO is 0.5%. […] Cell lysates were analyzed on a Sodium Dodecyl Sulfate Polyacrylamide Gel Electrophoresis (SDS PAGE) and after transfer to a nitrocellulose membrane detected with an antibody specifically recognizing the pY 1248 in HER-2 (phosphorylated tyrosine residue 1248 of human […]). After incubation with an anti rabbit antibody coupled to POD (peroxidase available from Biorad, Munich, Germany) signals were detected by chemiluminescence (ECL, Amersham). Inhibition of HER-2 phosphorylation is calculated as a percentage of the control, which is treated with DMSO only. The percentage of the inhibition is calculated according to the following formula: Inhibition in %=100−(Phosphorylated-HER2-Signal of Test Sample* 100/Phosphorylated-HER2-Signal DMSO-control).

T1 sequence (P04626 23-1255): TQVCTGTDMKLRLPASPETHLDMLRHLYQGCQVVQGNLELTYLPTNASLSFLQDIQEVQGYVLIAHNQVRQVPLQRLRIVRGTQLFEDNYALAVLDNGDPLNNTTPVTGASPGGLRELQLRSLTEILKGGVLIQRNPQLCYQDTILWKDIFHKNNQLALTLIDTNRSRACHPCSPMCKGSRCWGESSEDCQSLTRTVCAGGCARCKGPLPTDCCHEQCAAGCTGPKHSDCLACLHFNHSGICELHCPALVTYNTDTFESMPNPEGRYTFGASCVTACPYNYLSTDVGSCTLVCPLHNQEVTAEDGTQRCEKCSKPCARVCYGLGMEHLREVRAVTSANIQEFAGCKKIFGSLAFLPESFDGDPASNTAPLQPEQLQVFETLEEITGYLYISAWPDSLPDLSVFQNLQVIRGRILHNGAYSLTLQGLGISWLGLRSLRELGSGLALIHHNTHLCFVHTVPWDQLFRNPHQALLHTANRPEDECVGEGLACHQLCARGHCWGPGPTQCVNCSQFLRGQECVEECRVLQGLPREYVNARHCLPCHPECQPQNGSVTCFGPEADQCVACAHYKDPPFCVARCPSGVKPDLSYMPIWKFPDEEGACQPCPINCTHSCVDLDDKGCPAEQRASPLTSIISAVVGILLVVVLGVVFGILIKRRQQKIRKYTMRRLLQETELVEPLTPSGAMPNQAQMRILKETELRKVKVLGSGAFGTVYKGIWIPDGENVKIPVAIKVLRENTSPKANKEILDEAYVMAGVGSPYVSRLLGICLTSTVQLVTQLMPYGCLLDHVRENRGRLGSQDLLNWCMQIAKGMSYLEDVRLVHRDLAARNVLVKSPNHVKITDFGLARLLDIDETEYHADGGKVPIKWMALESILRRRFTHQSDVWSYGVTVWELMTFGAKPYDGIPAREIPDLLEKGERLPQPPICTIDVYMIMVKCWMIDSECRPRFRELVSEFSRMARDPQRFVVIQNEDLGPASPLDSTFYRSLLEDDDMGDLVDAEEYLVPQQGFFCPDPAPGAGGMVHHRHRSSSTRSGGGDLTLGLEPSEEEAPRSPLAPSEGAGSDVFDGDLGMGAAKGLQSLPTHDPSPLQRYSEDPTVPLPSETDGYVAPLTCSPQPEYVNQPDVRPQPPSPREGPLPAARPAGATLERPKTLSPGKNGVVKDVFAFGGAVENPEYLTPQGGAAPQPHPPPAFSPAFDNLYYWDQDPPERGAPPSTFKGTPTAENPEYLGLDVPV

As a reminder, the inhibition is the drop in the measured response relative to a control, in per cent. As to `Clc1ccc(/C=C/c2nc(COc3ccc(COCCn4ccnn4)cc3)co2)cc1` [Example 2, 1-[2-(4-{2-[2-(E)-(4-Chloro-phenyl)-vinyl]-oxazol-4-ylmethoxy}-benzyloxy)-ethyl]-1H-[1,2,3]triazole], the inhibition at 1 µM was > 80%. For `Fc1cc(Cl)ccc1/C=C/c1nc(COc2ccc(COCCn3ccnn3)cc2)co1` [Example 1, 1-[2-(4-{2-[2-(E)-(4-Chloro-2-fluoro-phenyl)-vinyl]-oxazol-4-ylmethoxy}-benzyloxy)-ethyl]-1H-[1,2,3]triazole] the value was 65 to 80%.
